We go through 23 compounds from US20080181866A1, “Amido Anti-viral Compounds” (Genelabs Technologies, Inc., priority 2006, published 2008).

Structures are written as SMILES.

In the experiment the test system is HCV replication. The experiment in a line: HCV replicon assay (luciferase) in ET (Huh-lucubineo-ET) cell line. The format is cell-based. The following applies: Hepatitis C virus, tested at 5 μM; ET replicon cells; luciferase activity measured 48-72 hours later; relative to no compound control. The procedure:
A cell line, ET (Huh-lucubineo-ET) was used for screening of compounds of the present invention for inhibiting HCV replication. The ET cell line was stably transfected with RNA transcripts harboring a I389luc-ubi-neo/NS3-3′/ET; replicon with firefly luciferase-ubiquitin-neomycin phosphotransferase fusion protein and EMCV-IRES driven NS3-5B polyprotein containing the cell culture adaptive mutations (E1202G; T12801; K1846T) (Krieger at al, 2001 and unpublished). The ET cells were grown in DMEM (Dulbeco's Modified Eagle's Medium), supplemented with 10% fetal calf serum, 2 mM Glutamine, Penicillin (100 IU/mL)/Streptomycin (100 μg/mL), 1× nonessential amino acids, and 250 μg/mL G418 (“Geneticin”). They were all available through Life Technologies (Bethesda, Md.). The cells were plated at 0.5-1.0×10^4 cells/well in the 96 well plates and incubated for 24 hrs before adding testing compounds. Then the compounds were added to the cells to achieve a final concentration of 0.1 nM to 50 μM and a final DMSO concentration of 0.5%. Luciferase activity were measured 48-72 hours later by adding a lysis buffer and the substrate (Catalog number Glo-lysis buffer E2661 and Bright-Glo luciferase system E2620 Promega, Madison, Wis.). Cells should not be too confluent during the assay. Percent inhibition of replication was plotted relative to no compound control. Under the same condition, cytotoxicity of the compounds was determined using cell proliferation reagent, WST-1 (Roche, Germany). The compounds showing antiviral activities, but no significant cytotoxicities were chosen to determine EC50 and TC50. For these determinations, a 10 point 2-fold serial dilution for each compound was used, which spans a concentration range of 1000 fold. EC50 and similarly TC50 values were calculated by fitting % inhibition at each concentration to the following equation:
% inhibition=100%/[(IC50/[I])^b+1]
where b is Hill's coefficient.
In some preferred embodiments compounds of Formula I will have a % inhibition of at least 20% when tested at 5 μM. In other embodiments the compounds of Formula I will have a % inhibition of at least 50% when tested at 5 μM.

The compound `O=C(NC1CC1)c1ccc(-c2csc(NC(=O)[C@@H]3CSC(CCCCC(=O)N4CCOCC4)N3C(=O)OCc3ccccc3)n2)cc1` (some centres unmarked) [Compound 7071, 4-[4-(4-Cyclopropylcarbamoyl-phenyl)-thiazol-2-ylcarbamoyl]-2-(5-morpholin-4-yl-5-oxo-pentyl)-thiazolidine-3-carboxylic acid benzyl ester] returned an inhibition at 5 µM of 100%.
For `O=C(O)c1cccc(C2SC[C@@H](C(=O)Nc3nc(-c4ccc(C(=O)NC5CC5)cc4)cs3)N2C(=O)OCc2ccccc2)c1` (mixture of isomers) [Compound 7034, (R)-2-(3-Carboxy-phenyl)-4-[4-(4-cyclopropylcarbamoyl-phenyl)-thiazol-2-ylcarbamoyl]-thiazolidine-3-carboxylic acid benzyl ester] the value was 98.7%.
To `O=C(NC1CC1)c1ccc(-c2csc(NC(=O)[C@@H]3CSC(CCCCC(=O)N4CCCCC4)N3C(=O)OCc3ccccc3)n2)cc1` (stereo in doubt) [Compound 7102, 4-[4-(4-Cyclopropylcarbamoyl-phenyl)-thiazol-2-ylcarbamoyl]-2-(5-oxo-5-piperidin-1-yl-pentyl)-thiazolidine-3-carboxylic acid benzyl ester] belongs 100%.
For `O=C(NC1CC1)c1ccc(-c2csc(NC(=O)[C@@H]3CSC(C4CCOC4)N3C(=O)OCc3ccccc3)n2)cc1` (some centres unmarked) [Compound 7122, 4-[4-(4-Cyclopropylcarbamoyl-phenyl)-thiazol-2-ylcarbamoyl]-2-(tetrahydro-furan-3-yl)-thiazolidine-3-carboxylic acid benzyl ester] the value was 100%.
`N#Cc1cccc(C2SC[C@@H](C(=O)Nc3nc(-c4ccc(C(=O)NC5CC5)cc4)cs3)N2C(=O)OCc2ccccc2)c1` (mixture of isomers) [Compound 7033, (R)-2-(3-Cyano-phenyl)-4-[4-(4-cyclopropylcarbamoyl-phenyl)-thiazol-2-ylcarbamoyl]-thiazolidine-3-carboxylic acid benzyl ester] showed an inhibition at 5 µM of 100%.
For `O=C(O)CCC1SC[C@@H](C(=O)Nc2nc(-c3ccc(C(=O)NC4CC4)cc3)cs2)N1C(=O)OCc1ccccc1` (mixture of isomers) [Compound 7065, 2-(2-Carboxy-ethyl)-4-[4-(4-cyclopropylcarbamoyl-phenyl)-thiazol-2-ylcarbamoyl]-thiazolidine-3-carboxylic acid benzyl ester] the value was 92%.
To `O=C(NC1CC1)c1ccc(-c2csc(NC(=O)[C@@H]3Cc4ccccc4N3C(=O)OCc3ccccc3)n2)cc1` [Compound 7039, (S)-2-[4-(4-Cyclopropylcarbamoyl-phenyl)-thiazol-2-ylcarbamoyl]-2,3-dihydro-indole-1-carboxylic acid benzyl ester] belongs 100%.
For `CN(C)C(=O)CCC1SC[C@@H](C(=O)Nc2nc(-c3ccc(C(=O)NC4CC4)cc3)cs2)N1C(=O)OCc1ccccc1` (some centres unmarked) [Compound 7118, 4-[4-(4-Cyclopropylcarbamoyl-phenyl)-thiazol-2-ylcarbamoyl]-2-(2-dimethylcarbamoyl-ethyl)-thiazolidine-3-carboxylic acid benzyl ester] the value was 99.9%.
Regarding `O=C(Nc1nc(-c2ccccc2)cs1)[C@@H]1CSC(c2ccncc2)N1C(=O)OCc1ccccc1` (some centres unmarked) [Compound 7026, 4-(4-Phenyl-thiazol-2-ylcarbamoyl)-2-pyridin-4-yl-thiazolidine-3-carboxylic acid benzyl ester], the inhibition at 5 µM came to 89.1%.
To `O=C(NC1CC1)c1ccc(-c2csc(NC(=O)[C@@H]3COC(c4ccncc4)N3C(=O)OCc3ccccc3)n2)cc1` (stereo partly drawn) [Compound 7011, (S)-4-[4-(4-Cyclopropylcarbamoyl-phenyl)-thiazol-2-ylcarbamoyl]-2-pyridin-4-yl-oxazolidine-3-carboxylic acid benzyl ester] belongs 98.8%.
To `Cc1cccc2[nH]c(Cc3ccc(NC(=O)[C@@H]4CSC(c5ccncc5)N4C(=O)OCc4ccccc4)cc3)nc12` (some centres unmarked) [Compound 7084, 4-[4-(4-Methyl-1H-benzoimidazol-2-ylmethyl)-phenylcarbamoyl]-2-pyridin-4-yl-thiazolidine-3-carboxylic acid benzyl ester] belongs 14.2%; to `O=C(Nc1ccc(CNS(=O)(=O)c2ccc(-c3ccccc3)cc2)cc1)[C@@H]1CSC(c2ccncc2)N1C(=O)OCc1ccccc1` (stereo in doubt) [Compound 7073, 4-{4-[(Biphenyl-4-sulfonylamino)-methyl]-phenylcarbamoyl}-2-pyridin-4-yl-thiazolidine-3-carboxylic acid benzyl ester], 65.3%.
For the compound `O=C(NC1CC1)c1ccc(-c2csc(NC(=O)[C@@H]3CSC(C4CCCCC4)N3C(=O)OCc3ccccc3)n2)cc1` (mixture of isomers) [Compound 7035, (R)-2-Cyclohexyl-4-[4-(4-cyclopropylcarbamoyl-phenyl)-thiazol-2-ylcarbamoyl]-thiazolidine-3-carboxylic acid benzyl ester], at 5 µM the inhibition was 98.9%.
To `O=C(NCCN1CCOCC1)c1ccc(-c2csc(NC(=O)[C@@H]3COC4(CCOCC4)N3C(=O)OCc3ccccc3)n2)cc1` [Compound 7141, 3-{4-[4-(2-Morpholin-4-yl-ethylcarbamoyl)-phenyl]-thiazol-2-ylcarbamoyl}-1,8-dioxa-4-aza-spiro[4.5]decane-4-carboxylic acid benzyl ester] belongs 100%; to `CC(C)(C)OC(=O)N1C[C@H](c2ccccc2)C[C@H]1C(=O)Nc1nc(-c2ccc(C(=O)NC3CC3)cc2)cs1` [Compound 7038, (2S,4S)-2-[4-(4-Cyclopropylcarbamoyl-phenyl)-thiazol-2-ylcarbamoyl]-4-phenyl-pyrrolidine-1-carboxylic acid tert-butyl ester], 48.4%; to `O=C(NC1CC1)c1ccc(-c2csc(NC(=O)[C@@H]3CSC(c4ccnc(Cl)c4)N3C(=O)OCc3ccccc3)n2)cc1` (mixture of isomers) [Compound 7029, (R)-2-(2-Chloro-pyridin-4-yl)-4-[4-(4-cyclopropylcarbamoyl-phenyl)-thiazol-2-ylcarbamoyl]-thiazolidine-3-carboxylic acid benzyl ester], 99.8%.
For `O=C(NC1CC1)c1ccc(-c2csc(NC(=O)[C@@H]3CS[C@H](c4cccnc4)N3C(=O)OCc3ccccc3)n2)cc1` [Compound 7028, (2R,4R)-4-[4-(4-Cyclopropylcarbamoyl-phenyl)-thiazol-2-ylcarbamoyl]-2-pyridin-3-yl-thiazolidine-3-carboxylic acid benzyl ester] the value was 100%.
`O=C(NC1CC1)c1ccc(-c2csc(NC(=O)[C@@H]3CSC(c4ccccc4)N3C(=O)OCc3ccccc3)n2)cc1` (stereo partly drawn) [Compound 7044, (R)-4-[4-(4-Cyclopropylcarbamoyl-phenyl)-thiazol-2-ylcarbamoyl]-2-phenyl-thiazolidine-3-carboxylic acid benzyl ester] registered an inhibition at 5 µM of 98%.
To `COc1cccc(C2SC[C@@H](C(=O)Nc3nc(-c4ccc(C(=O)NC5CC5)cc4)cs3)N2C(=O)OCc2ccccc2)c1` (mixture of isomers) [Compound 7016, (R)-4-[4-(4-Cyclopropylcarbamoyl-phenyl)-thiazol-2-ylcarbamoyl]-2-(3-methoxy-phenyl)-thiazolidine-3-carboxylic acid benzyl ester] belongs 98.5%; to `O=C(NCc1ccc(NC(=O)[C@@H]2CSC(c3ccncc3)N2C(=O)OCc2ccccc2)cc1)c1ccccc1` (stereo in doubt) [Compound 7077, 4-[4-(Benzoylamino-methyl)-phenylcarbamoyl]-2-pyridin-4-yl-thiazolidine-3-carboxylic acid benzyl ester], 2.1%.
To `O=C(Nc1ccc(CNS(=O)(=O)c2ccccc2)cc1)[C@@H]1CSC(c2ccncc2)N1C(=O)OCc1ccccc1` (some centres unmarked) [Compound 7111, 4-[4-(Benzenesulfonylamino-methyl)-phenylcarbamoyl]-2-pyridin-4-yl-thiazolidine-3-carboxylic acid benzyl ester] belongs 43%.
`O=C(Cc1ccc(NC(=O)[C@@H]2CSC(c3ccncc3)N2C(=O)OCc2ccccc2)cc1)NCCc1ccccc1` (some centres unmarked) [Compound 7119, 4-[4-(Phenethylcarbamoyl-methyl)-phenylcarbamoyl]-2-pyridin-4-yl-thiazolidine-3-carboxylic acid benzyl ester]: the inhibition at 5 µM amounted to 1.2%.
For `O=C(Nc1cccnc1)c1ccc(-c2csc(NC(=O)[C@@H]3CSC4(CCOCC4)N3C(=O)OCc3ccccc3)n2)cc1` [Compound 7139, 3-{4-[4-(Pyridin-3-ylcarbamoyl)-phenyl]-thiazol-2-ylcarbamoyl}-8-oxa-1-thia-4-aza-spiro-[4.5]decane-4-carboxylic acid benzyl ester] the value was 100%.
